Source: patent US8440180B2, “Anti-cancer composition comprising aquatic microbial extract” (Ajou University Industry-Academic Cooperation Foundation, priority 2007, dated 2013)

How the values were obtained:
Format in all cases: cell-based, human
MMP-9 = assay: MMP activity test using zymogram; conditions: 10 ng HGF-treated group compared to the control
Protocol: Proteins were quantitified from each of the supernatants, 30 μg of each supernatant was taken, and 15 μl APMA was added to each of the supernatants and activated at 37° C. for 1 hour. The activated test samples were added, and treated with MightySlim™ SX 250 (Hoefer, Calif., USA) for 2 4 hours and 48 hours. Then, the resulting test samples were ground to obtain cytoplasm samples. 10 μl of the cytoplasm samples were taken from these cytoplasm samples and added to sample buffers, respectively, and kept for 10 minutes. Then, the cytoplasm samples were added to previously-prepared gels, and then reacted at 4° C. and 125V for 120 minutes using Novex XCell II. The resulting cytoplasm samples were kept in a renaturing buffer at a room temperature for 60 minutes, and, after a developing buffer was replaced by 100 ml of fresh developing buffer, the cytoplasm samples were kept in the fresh developing buffer for 18 hours at 37° C. while stirring. Then, the cytoplasm samples were stained with Coomassie blue for 3 hours, washed with water, and observed at intervals of 10 minutes. In this case, a the gels were destained with a destaining solution (Methanol 400 ml, Acetic acid 100 ml, Distilled water 500 ml), and photographs of the gels were then taken using an image analyzer.

MMP-2 = assay: Expression level test of MMP using RT-PCR; conditions: for expression level of the MMP-2: 24 and 48 hours
Protocol: 1 ml of a cancer cell line was homogenated in a TRIzol (GIBCOBRL, Grand Island, N.Y., USA) reagent, and the total RNA was extracted from the cancer cell line. 2 μg of the total RNA extracted from the hypopharyngeal cancer cell line was put into reaction mixtures of an Omniscript Reverse Transcriptase kit (20511, Qiagen Germany) (including 2.0 μl of 10× Buffer RT, 2.0 μl of dNTP Mix (5 mM each dNTP), 2.0 μl of Oligo-dT primer (10 μM), 1.0 μl of a RNase inhibitor (10 units/μl), 2 units of Omniscript Reverse Transcriptase and 20 μl of RNase-free water), and reverse transcribed at 37° C. for 60 minutes and at 94° C. for 5 minutes to synthesize cDNA. PCR was carried out using Minicycler™ (MJ research, USA), and the synthesized cDNA was added together with 1 unit of Taq DNA polymerase (Roche Diagnostics Co, Indianapolis, USA) and each primer, and then amplified.
DNA sequences of MMP-2 primer and MMP-9 primer used in this experiment were listed as follows.
A PCR procedure was carried out in one initial denaturation cycle at 96° C. for 3 minutes, 30 amplification cycles at 96° C. for 30 seconds, at 55° C. for 30 seconds and at 72° C. for 30 seconds, and one extension cycle at 72° C. for 5 minutes.

FaDu cells = assay: Proliferative assay of tumor cell; conditions: fifth day after the treatment, compared to the DMSO control
Protocol: In order to evaluate effects of selected aquatic microbial extracts having an anti-cancer effect, FaDu cells (1×10^5/well) treated with 0, 10 and 30 ng/ml of HGF were treated with an aquatic Bacillus sp. strain extract (concentration: 1, 10 and 100 μM), and then incubated for 5 days. Then, 1, 3 and 5-day growth of the FaDu cells were determined by measuring the cell number of the FaDu cells using a haemocytometer. In this case, a medium was replaced by fresh medium. This experiment was repeated five times to statistically analyze the cell number difference according to the amounts of HGF and the extract.

HGF: hepatocyte growth factor used to stimulate cancer cells
expression of the MMP-9 (MMP activity evaluation) (MMP-9): slightly increased | expression level of the MMP-2 (MMP-2; 10 ng/ml HGF, vs control): not significantly different | expression level of the MMP-2 (MMP-2; 30 ng/ml HGF): increased | expression level between the control and the HGF-treated groups when MMP-2 was treated with the HGF (MMP-2; second statement, printed MMP-2): no distinct difference | cell proliferation on stimulation with hepatocyte growth factor (FaDu cells): statistically significant cell proliferation
